Assay results taken from patent publication US5939403A, “Keratan sulfate oligosaccharide fraction and pharmaceutical containing the same” (Seikagaku Corporation, priority 1994, dated 1999).
Structures can show the parent of a compound that is named as a salt.

Assays:
[1] = test system: mesenteric lymph node and submandibular lymph node; assay: Cell differentiation induction: staining concentration of lymph node sections (HE staining); format: in vivo, MRL-lpr/lpr mice; conditions: four weeks
Method: The PBS solution of the purified keratan sulfate disaccharide (III) which was prepared in Example 1 described above at a dose of 1 mg/kg, 5 mg/kg, or 25 mg/kg weight (hereinafter referred to as the 1 mg/kg administered group, the 5 mg/kg administered group, and the 25 mg/kg administered group, respectively), and PBS as the control (hereinafter sometimes referred to as the control group) was intramuscularly injected, respectively, to the femoral region of MRL-lpr/lpr mice seven times a week for four weeks. After that, the mice were subjected to anatomization to prepare the section specimens (HE staining) of mesenteric lymph node and submandibular lymph node. The staining concentrations per unit area of the specimens were analyzed by an image analyzer (PIAS). In the undifferentiated cells, the staining concentration per unit area is low because proportion of the cytoplasm is high and the nuclei is stained thinly. In the differentiated cells, the staining concentration per unit area is high because proportion of the nuclei is high and it is stained thickly.
The results of the analysis of mesenteric lymph nodes and submandibular lymph nodes are shown in FIG. 17 and FIG. 18 with the standard errors, respectively. In the figures, ** represents that it has the significant difference with p<0.01 (wherein "p" means a level of significance by the Bonferroni multiple comparative test). […]

[2] = test system: foot edema reversed passive Arthus reaction; assay: Foot edema reversed passive Arthus reaction; format: in vivo, Male Crj:SD rats
Method: The effect of the keratan sulfate oligosaccharide was examined on the foot edema reversed passive Arthus reaction of rats, which is a type III allergic inflammation model. That is, the rabbit antiovalbumin serum was subcutaneously administered to the planta of the rats which were previously subjected to the administration of the test substances, furthermore ovalbumin was administered by injection into the caudal vein thereof to induce inflammation (edema), and the inhibitory effect on edema of the test substances was examined.
Male Crj:SD rats of five weeks old were subjected to a fast of about 17 hours after a week period of quarantine, and, before inducing inflammation, subjected to the administration of the purified keratan sulfate tetrasaccharide (I) which was prepared in Example 1, indomethacin (Sigma; Lot No. 19F0018), or dexamethasone (Banyu Pharmaceutical); Decadron injection; Lot No. 8D307P) as the test substances, or saline (Otsuka Pharmaceutical; Lot No. K3H72) as the negative control. The keratan sulfate tetrasaccharide (I) and dexamethasone were dissolved in saline, respectively, and the indomethacin was dissolved in 0.5% sodium carboxymethylcellulose (CMC-Na; Wako Pure Chemical Industries; Lot No. PTN1418) in use. The volume of dose was 0.5 ml per 100 g weight in each test. Concerning the route of administration, the keratan sulfate tetrasaccharide (I), saline, and dexamethasone were administered from the caudal vein, and the indomethacin was orally administered. And the substances except for indomethacin were administered by the blind method.
The dose and administration schedule of each test substance were as follows. Each group consisted of five animals.
The rabbit antiovalbumin serum was subcutaneously administered to each of the rats described above on the planta thereof, and ovalbumin was further administered by injection into the caudal vein to induce inflammation foot edema. The antiserum used was prepared as follows. That is, to the regions of back of rabbits, 1 ml of the equivalently mixed solution (emulsion) of the saline containing 2% ovalbumin (10 mg per one animal, Egg Albumin 5×Cryst, Lot No. P93601; Seikagaku Corporation) and the Freund's complete adjuvant (FCA) was intradermally injected once a week three times totally to subject themselves to sensitization. About 34 days after the last sensitization, the blood was drawn to obtain the antiserum. The antibody titer of the antiserum obtained was determined by the double layer method. Namely, the determination was performed using the white precipitation reaction of the antiserum diluted with saline and the saline containing 0.1% ovalbumin (1 mg/ml) as the indicator. As a result, the antibody titer of the antiserum obtained was x2^7.
After the period which is designed for each group, each 0.1 ml of the sixfold diluted antiserum was subcutaneously administered to the planta of left rear foot of the rats which were subjected to the administration of each test substance. Then, the saline containing 0.5% ovalbumin (25 mg/5 ml/kg) was administered into the caudal vein to induce inflammation. The volume of the treated feet in each group was determined before inducing inflammation, and one, two, three and four hours after inducing inflammation by a foot volume determining device (TK-101, Unicom) to yield the foot edematization rate from the difference from the value before the induction, and the edematization inhibitory rate of the test substance administered group to the control group was calculated. In each edematization rate obtained, the difference between the averages was tested by the minimum significant difference test. The foot edematization rate and the edematization inhibitory rate of each administered group are shown in Table 9, and the foot edematization rate of the administered groups which was subjected to the administration of the agent at five minutes and at three hours before inducing inflammation are shown in FIG. 6 and FIG. 7, respectively. […]

CC(=O)N[C@H]1C(O)O[C@H](COS(=O)(=O)O)[C@@H](O[C@@H]2O[C@H](COS(=O)(=O)O)[C@H](O)[C@H](O)[C@H]2O)[C@@H]1O (stereo partly drawn) [keratan sulfate disaccharide (III), Gal(6S)β1-4GlcNAc(6S)]
staining concentration per unit area (FIG. 17, FIG. 18) ([1]; 5 mg/kg and 25 mg/kg i.m., p<0.01): the staining concentrations increased significantly compared with the control group | staining concentration per unit area (FIG. 17, FIG. 18) ([1]; any dose (1, 5, 25 mg/kg i.m.)): an increase in the staining concentration per unit area (decrease in relative lightness) was observed

CC(=O)N[C@H]1[C@H](O[C@H]2[C@@H](O)[C@@H](COS(=O)(=O)O)O[C@@H](O[C@H]3[C@H](O)[C@@H](NC(C)=O)C(O)O[C@@H]3COS(=O)(=O)O)[C@@H]2O)O[C@H](COS(=O)(=O)O)[C@@H](O[C@@H]2O[C@H](COS(=O)(=O)O)[C@H](O)[C@H](O)[C@H]2O)[C@@H]1O (stereo partly drawn) [keratan sulfate tetrasaccharide (I), Gal(6S)β1-4GlcNAc(6S)β1-3Gal(6S)β1-4GlcNAc(6S)]
Inhibitory Rate ([2]; 1 Hour Later, 1 mg/kg i.v. at 5 minutes before inducing edema): 28.7% | Edematization Rate ([2]; 1 Hour Later, 1 mg/kg i.v. at 5 minutes before inducing edema, P < 0.01, control 40.9): 29.2 ± 1.3% | Inhibitory Rate ([2]; 1 Hour Later, 1 mg/kg i.v. at 3 hours before inducing edema): 13.4% | Edematization Rate ([2]; 1 Hour Later, 1 mg/kg i.v. at 3 hours before inducing edema, control 40.9): 35.4 ± 1.6% | Inhibitory Rate ([2]; 1 Hour Later, 3 mg/kg i.v. at 5 minutes before inducing edema): 15.8% | Edematization Rate ([2]; 1 Hour Later, 3 mg/kg i.v. at 5 minutes before inducing edema, control 40.9): 34.4 ± 5.2% | Inhibitory Rate ([2]; 1 Hour Later, 3 mg/kg i.v. at 3 hours before inducing edema): 10.6% | Edematization Rate ([2]; 1 Hour Later, 3 mg/kg i.v. at 3 hours before inducing edema, control 40.9): 36.5 ± 3.5% | Inhibitory Rate ([2]; 1 Hour Later, 10 mg/kg i.v. at 5 minutes before inducing edema): 28.9% | Edematization Rate ([2]; 1 Hour Later, 10 mg/kg i.v. at 5 minutes before inducing edema, P < 0.01, control 40.9): 29.1 ± 3.7% | Inhibitory Rate ([2]; 1 Hour Later, 10 mg/kg i.v. at 3 hours before inducing edema): -8.1% | Edematization Rate ([2]; 1 Hour Later, 10 mg/kg i.v. at 3 hours before inducing edema, control 40.9): 44.2 ± 3.4% | Inhibitory Rate ([2]; 2 Hours Later, 1 mg/kg i.v. at 5 minutes before inducing edema): 36.5% | Edematization Rate ([2]; 2 Hours Later, 1 mg/kg i.v. at 5 minutes before inducing edema, P < 0.01, control 46.3): 29.4 ± 2.9% | Inhibitory Rate ([2]; 2 Hours Later, 1 mg/kg i.v. at 3 hours before inducing edema): 8.4% | Edematization Rate ([2]; 2 Hours Later, 1 mg/kg i.v. at 3 hours before inducing edema, control 46.3): 42.4 ± 3.6% | Inhibitory Rate ([2]; 2 Hours Later, 3 mg/kg i.v. at 5 minutes before inducing edema): 8.6% | Edematization Rate ([2]; 2 Hours Later, 3 mg/kg i.v. at 5 minutes before inducing edema, control 46.3): 42.3 ± 4.2% | Inhibitory Rate ([2]; 2 Hours Later, 3 mg/kg i.v. at 3 hours before inducing edema): 23.9% | Edematization Rate ([2]; 2 Hours Later, 3 mg/kg i.v. at 3 hours before inducing edema, P < 0.01, control 46.3, 3 mg/kg): 35.3% | Edematization Rate ([2]; 2 Hours Later, 3 mg/kg i.v. at 3 hours before inducing edema, P < 0.01, control 46.3, listed as Keratan Sulfate Tetrasaccharide (I), 3 mg/kg): 35.3 ± 2.3% | Inhibitory Rate ([2]; 2 Hours Later, 10 mg/kg i.v. at 5 minutes before inducing edema): 9.1% | Edematization Rate ([2]; 2 Hours Later, 10 mg/kg i.v. at 5 minutes before inducing edema, control 46.3): 42.1 ± 2.9% | Inhibitory Rate ([2]; 2 Hours Later, 10 mg/kg i.v. at 3 hours before inducing edema): 0.4% | Edematization Rate ([2]; 2 Hours Later, 10 mg/kg i.v. at 3 hours before inducing edema, control 46.3): 46.1 ± 2.6% | Inhibitory Rate ([2]; 3 Hours Later, 1 mg/kg i.v. at 5 minutes before inducing edema): 17.0% | Edematization Rate ([2]; 3 Hours Later, 1 mg/kg i.v. at 5 minutes before inducing edema, P < 0.01, control 51.2): 42.3 ± 3.6% | Inhibitory Rate ([2]; 3 Hours Later, 1 mg/kg i.v. at 3 hours before inducing edema): 8.4% | Edematization Rate ([2]; 3 Hours Later, 1 mg/kg i.v. at 3 hours before inducing edema, control 51.2): 46.7 ± 2.6% | Inhibitory Rate ([2]; 3 Hours Later, 3 mg/kg i.v. at 5 minutes before inducing edema): 9.5% | Edematization Rate ([2]; 3 Hours Later, 3 mg/kg i.v. at 5 minutes before inducing edema, control 51.2): 46.1 ± 2.2% | Inhibitory Rate ([2]; 3 Hours Later, 3 mg/kg i.v. at 3 hours before inducing edema): 21.5% | Edematization Rate ([2]; 3 Hours Later, 3 mg/kg i.v. at 3 hours before inducing edema, P < 0.01, control 51.2): 40.1 ± 2.8% | Inhibitory Rate ([2]; 3 Hours Later, 10 mg/kg i.v. at 5 minutes before inducing edema): 12.3% | Edematization Rate ([2]; 3 Hours Later, 10 mg/kg i.v. at 5 minutes before inducing edema, control 51.2): 44.8 ± 5.1% | Inhibitory Rate ([2]; 3 Hours Later, 10 mg/kg i.v. at 3 hours before inducing edema): 18.7% | Edematization Rate ([2]; 3 Hours Later, 10 mg/kg i.v. at 3 hours before inducing edema, P < 0.01, control 51.2, 10 mg/kg): 41.5% | Edematization Rate ([2]; 3 Hours Later, 10 mg/kg i.v. at 3 hours before inducing edema, P < 0.01, control 51.2, listed as Keratan Sulfate Tetrasaccharide (I), 10 mg/kg): 41.5 ± 1.8% | Inhibitory Rate ([2]; 4 Hours Later, 1 mg/kg i.v. at 5 minutes before inducing edema): 11.3% | Edematization Rate ([2]; 4 Hours Later, 1 mg/kg i.v. at 5 minutes before inducing edema, control 44.9): 39.8 ± 3.0% | Inhibitory Rate ([2]; 4 Hours Later, 1 mg/kg i.v. at 3 hours before inducing edema): 15.5% | Edematization Rate ([2]; 4 Hours Later, 1 mg/kg i.v. at 3 hours before inducing edema, P < 0.05, control 44.9, 1 mg/kg): 38% | Edematization Rate ([2]; 4 Hours Later, 1 mg/kg i.v. at 3 hours before inducing edema, P < 0.05, control 44.9, listed as Keratan Sulfate Tetrasaccharide (I), 1 mg/kg): 38.0 ± 3.5% | Inhibitory Rate ([2]; 4 Hours Later, 3 mg/kg i.v. at 5 minutes before inducing edema): 17.1% | Edematization Rate ([2]; 4 Hours Later, 3 mg/kg i.v. at 5 minutes before inducing edema, P < 0.05, control 44.9, 3 mg/kg): 37.2% | Edematization Rate ([2]; 4 Hours Later, 3 mg/kg i.v. at 5 minutes before inducing edema, P < 0.05, control 44.9, listed as Keratan Sulfate Tetrasaccharide (I), 3 mg/kg): 37.2 ± 3.1% | Inhibitory Rate ([2]; 4 Hours Later, 3 mg/kg i.v. at 3 hours before inducing edema): 24.4% | Edematization Rate ([2]; 4 Hours Later, 3 mg/kg i.v. at 3 hours before inducing edema, P < 0.01, control 44.9): 33.9% | Inhibitory Rate ([2]; 4 Hours Later, 10 mg/kg i.v. at 5 minutes before inducing edema): 21.2% | Edematization Rate ([2]; 4 Hours Later, 10 mg/kg i.v. at 5 minutes before inducing edema, P < 0.01, control 44.9): 35.4% | Inhibitory Rate ([2]; 4 Hours Later, 10 mg/kg i.v. at 3 hours before inducing edema): 23.2% | Edematization Rate ([2]; 4 Hours Later, 10 mg/kg i.v. at 3 hours before inducing edema, P < 0.01, control 44.9): 34.5% | foot edematization rate, significance (result in words) ([2]; after an hour, administration at five minutes before inducing inflammation): the significant difference was observed in the 1 mg/kg administered group and the 10 mg/kg administered group | foot edematization rate, significance (result in words) ([2]; an hour after inducing inflammation, administration at three hours before): significant difference was not observed an hour after inducing inflammation
